From patent publication US20220184081A1, “ANTIPRURITIC AGENT USING PAC1 RECEPTOR ANTAGONIST” (KAGOSHIMA UNIVERSITY, priority 2019, published 2022)

Experiments:
mouse VPAC1 receptor = molecular target: T1, mouse VPAC1 receptor (Mus musculus, UniProt P97751); test: CREB phosphorylation by PACAP stimulus, Western blot, VPAC1/CHO cells; type: cell-based; conditions: PA-8 10 pM to 10 nM, FIG. 4B
T1 construct: expressed in transfected cells; host or cells: CHO cells
T1 sequence (P97751 31-459): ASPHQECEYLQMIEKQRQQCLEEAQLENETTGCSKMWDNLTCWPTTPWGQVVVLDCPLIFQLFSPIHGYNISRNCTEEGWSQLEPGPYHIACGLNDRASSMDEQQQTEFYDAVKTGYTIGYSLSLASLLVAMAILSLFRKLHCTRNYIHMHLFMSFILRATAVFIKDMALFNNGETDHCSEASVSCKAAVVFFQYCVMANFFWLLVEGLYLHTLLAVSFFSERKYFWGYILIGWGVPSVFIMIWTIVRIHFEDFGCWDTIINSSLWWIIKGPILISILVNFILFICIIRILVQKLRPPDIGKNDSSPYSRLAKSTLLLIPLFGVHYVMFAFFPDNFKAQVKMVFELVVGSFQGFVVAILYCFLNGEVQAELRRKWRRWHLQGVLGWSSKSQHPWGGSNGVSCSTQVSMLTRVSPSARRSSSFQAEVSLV
Procedure: The effect of each compound on the phosphorylation of CREB (cAMP-responsive element-binding protein) produced by a PACAP stimulus was examined by Western blot analysis using an anti-phosphorylated CREB (pCREB) antibody with a mouse PAC1 receptor-expressing CHO cells (PAC1/CHO cells) and a mouse VPAC1 receptor-expressing CHO cells (VPAC1/CHO cells).
Specifically, treatment with a compound (PA-8, compound 2j and compound 2o) at 10 pM to 10 nM or a solvent therefor, DMSO (VEH: 0.1% DMSO-containing phosphate buffer solution) was performed for 30 minutes, 1 nM PACAP was then added, and protein was recovered within 30 minutes after a PACAP stimulus.

[1] = tested on: PACAP-induced itch behavior in mice; test: Itch behavior induced by PACAP intradermal administration; type: in vivo, mouse; conditions: simultaneous intradermal administration with PACAP, 0.01 to 1 nmol; FIG. 7A, 8, 9
Text: SLN indicates intradermal administration of normal saline. DMSO (10% solution, dissolved in normal saline) is a solvent for PA-8.
SLN indicates intradermal administration of normal saline. VEH (10% DMSO solution, dissolved in normal saline) is a solvent for PA-8 and the compound 2o.
SLN indicates intradermal administration of normal saline. VEH (10% DMSO solution, dissolved in normal saline) is a solvent for PA-9 and the compound 3d.

[2] = tested on: chloroquine-induced itch behavior in mice; test: Itch behavior induced by chloroquine intradermal administration; type: in vivo, mouse; conditions: intrathecal pre-administration (i.t., 10 minutes before i.d.), 1 nmol; chloroquine 100 μg/10 μL; FIG. 10
Procedure: Chloroquine (100 μg/10 μL) was intradermally injected into the waist of each mouse (intradermal injection, i.d.). The reaction of biting, licking or scratching the injected site was defined as itch behavior, and the behavioral time was counted every 5 minutes. […] DMSO (10% solution, dissolved in normal saline) is a solvent for PA-8 or PA-9.

[3] = tested on: Compound 48/80-induced itch behavior in mice; test: Itch behavior induced by Compound 48/80 intradermal administration; type: in vivo, mouse; conditions: intrathecal pre-administration (i.t., 10 minutes before i.d.), 1 nmol; Compound 48/80 100 μg/10 μL; FIG. 11
Procedure: Compound 48/80 (100 μg/10 μL) was intradermally injected into the waist of each mouse (intradermal injection, i.d.). The reaction of biting, licking or scratching the injected site was defined as itch behavior, and the behavioral time was counted every 5 minutes. […] DMSO (10% solution, dissolved in normal saline) is a solvent for PA-8 or PA-9.

[4] = tested on: atopic dermatitis mouse model; test: Atopic dermatitis mouse model (DNFB); type: in vivo, ICR mice; conditions: 30 mg/kg p.o. 30 minutes before 1 hour video observation; FIG. 13
Procedure: The present test was carried out with reference to the method of Kitamura et al. that is a test system published as a method for evaluating itch in animals (Kitamura A., Takata R., Aizawa S., et al.: A murine model of atopic dermatitis can be generated by painting the dorsal skin with hapten twice 14 days apart, Scientific Rep., 8: 5988, 2018).
Five-week-old ICR mice (30 mice) were each placed in a cage, and were then conditioned for 1 week. Thereafter, three days before initiation of the test, the waist of each mouse was shaved. On the experiment start date, for the purpose of destroying the function of skin barrier, tape stripping was carried out, and 0.15% 2,4-dinitrofluorobenzene (DNFB) solution [acetone/olive oil (3:1)] was applied to the shaved waist of each mouse, using a 100-μIL pipette. Seven days later, the 0.15% DNFB solution was applied thereto once again, and two hours later, video observation was carried out for 1 hour. The shaved 30 mice were divided into 5 groups (6 mice per group), namely, a 30 mg/kg PA-8 oral (p.o.) administration group, a 30 mg/kg compound 2o oral (p.o.) administration group, a 30 mg/kg PA-9 oral (p.o.) administration group, a 30 mg/kg compound 3d (p.o.) administration group, and a solvent administration group (VEH: oral administration of 10% DMSO aqueous solution). Oral administration was carried out 30 minutes before initiation of the video observation.
An outline of the procedures of a behavioral experiment using the atopic dermatitis mouse model is shown in FIG. 12, and the results obtained by evaluating the time spent in scratching of each group are shown in FIG. 13.

Which results are given for `C=CCOc1ccc(C2CC(=O)Nc3nc(N)[nH]c(=O)c32)cc1OC` (centres unmarked) [PA-8]?
CREB phosphorylation by PACAP (1 nM) (mouse VPAC1 receptor): did not suppress CREB phosphorylation; biting, licking or scratching behavior induced by PACAP (100 pmol) intradermal administration [1]: suppressed in a dose-dependent manner; chloroquine-induced itch behavior [2]: almost completely suppressed; Compound 48/80-induced itch behavior [3]: almost completely suppressed; itch behavior induced by the DNFB treatment (time spent in scratching) [4]: significantly suppressed
